{"source": "patent US20230295165A1", "about": "“COMPOUNDS” (The Provost, Fellows, Foundation Scholars, and the other …, priority 2020, published 2023)"}
{"biological_target": "T1, queuine-tRNA ribosyltransferase enzyme complex (hQTRT1:hQTRT2) (Homo sapiens, UniProt Q9BXR0)", "T1 construct": "polyhistidine tag (N); made in house; host or cells: E. coli BL21(DE3) tgt::Kmr", "T1 sequence (Q9BXR0 whole entry)": "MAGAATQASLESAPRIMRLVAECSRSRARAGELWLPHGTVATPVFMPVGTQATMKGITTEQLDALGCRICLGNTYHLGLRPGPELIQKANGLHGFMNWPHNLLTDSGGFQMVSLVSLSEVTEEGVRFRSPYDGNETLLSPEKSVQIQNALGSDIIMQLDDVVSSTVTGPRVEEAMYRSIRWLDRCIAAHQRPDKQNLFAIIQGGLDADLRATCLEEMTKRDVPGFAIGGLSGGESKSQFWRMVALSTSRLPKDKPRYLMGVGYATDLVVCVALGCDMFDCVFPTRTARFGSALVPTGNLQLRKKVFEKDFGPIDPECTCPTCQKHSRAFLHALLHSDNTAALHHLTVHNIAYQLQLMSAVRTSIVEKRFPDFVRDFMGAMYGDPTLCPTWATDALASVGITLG", "T1 sequence (Q9H974 whole entry partner)": "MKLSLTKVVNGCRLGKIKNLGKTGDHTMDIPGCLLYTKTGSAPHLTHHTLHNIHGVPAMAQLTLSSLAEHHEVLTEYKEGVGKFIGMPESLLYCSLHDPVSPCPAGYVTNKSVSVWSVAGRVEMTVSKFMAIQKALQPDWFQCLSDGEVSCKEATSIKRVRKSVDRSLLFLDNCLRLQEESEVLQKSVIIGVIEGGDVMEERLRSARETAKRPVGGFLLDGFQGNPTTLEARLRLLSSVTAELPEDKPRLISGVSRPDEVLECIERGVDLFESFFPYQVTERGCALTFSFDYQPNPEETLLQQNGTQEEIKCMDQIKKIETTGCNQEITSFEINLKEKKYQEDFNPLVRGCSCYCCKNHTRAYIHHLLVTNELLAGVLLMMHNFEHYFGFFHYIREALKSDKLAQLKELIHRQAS", "experiment": "[8-14C] guanine displacement assay (tRNA*)", "assay_type": "biochemical", "details": "50 μM compound, 100 nM hQTRT1:hQTRT2, 30 mins at 37° C.; background ≤2%; ≥5% counts as positive substrate for TGT", "method": "Compounds capable of acting as a queuine-tRNA ribosyltransferase enzyme complex substrate may be identified by use of a displacement assay as described below:\nProduction of [8-^14C] Guanine Labeled tRNA (tRNA*)\nBefore adding the 8-[^14C] guanine solution to the reaction the solution was neutralised with an equal volume (vol/vol) 0.01 M NaOH, as the [8-^14C] Guanine is supplied in 0.01 M HCl aqueous solution. In vitro synthesised human tyrosyl tRNA was prepared by T7 transcription in ultrapure nuclease-free water as described previously (Alqasem et al., 2020). Recombinant human QTRT1 enzyme containing an N-terminalpolyhistidine tag and human QTRT2 containing a C-terminal TEV-Strep-Tag®II tag were produced in BL21(DE3) tgt::Kmr cells as described previously (Alqasem et al., 2020).\nThe reaction was incubated for 1 hour at 37° C. […] The tRNA* pellet was resuspended in 30 μL nuclease-free water and the concentration measured spectrophotometrically at A260. […]\nAfter 30 mins the reactions were quenched by mixing with 2.5 ml ice-cold 10% trichloroacetic acid (TCA) and placed on ice for one hour to precipitate the tRNA. […] The vacuum manifold was disassembled, the filters recovered and dried again at room temperature before being placed in scintillation vials containing 10 ml of Ecoscint A and radioactivity levels measured by scintillation counting. […]", "units": {"displacement of the [14C] guanine": "%"}}
{"smiles": "Nc1nc2[nH]cc(CN[C@H]3C=C[C@H](O)[C@@H]3O)c2c(=O)[nH]1", "note": "[queuine base, queuine]", "displacement of the [14C] guanine": "> 98"}
{"system": "RA synovial primary fibroblasts (RASFCs)", "experiment": "Synovial fibroblast assay, IL-6 ELISA on TNF-treated RASFC supernatants", "assay_type": "cell-based, human", "details": "200 μm compound, TNF 10 ng/ml, supernatants at 72 hr, n=3 RASFCs, DMSO vehicle = 100%", "method": "To assess the compounds in human rheumatoid arthritis samples the following protocol was employed:\nIsolation of Primary Fibroblasts (RASFCs): RA synovial biopsies were digested with 1 mg/ml collagenase type 1 (Worthington Biochemical, Freehold, NJ, USA) in RPMI-1640 (Gibco-BRL, Paisley, UK) for 4 hr at 37° C. in humidified air with 5% CO2. Dissociated cells were grown to confluence in RPMI 1640, 10% FCS (Gibco-BRL), 10 ml of 1 mmol/l HEPES (Gibco-BRL), penicillin (100 units/ml; Bioscience), streptomycin (100 units/ml; Bioscience) and fungizone (0.25 μg/ml; Bioscience) before passaging. Cells were used between passages 3-8.\nCompounds (200 μm) were Tested on n=3 RASFCs\nRASFCs were grown to 80% confluency in 48 well plates. RASFCs were treated with TNF (10 ng/ml) in the presence of 200 μm of each compound. Media was replaced after 24 h and fresh media and compound was added. Cell supernatants were collected at 72 hr time point. DMSO treated cells were used as a vehicle control (Red dotted line represents DMSO control). IL-6 ELISA: Levels of pro-inflammatory cytokine IL6 were measured in cultured RASFC supernatants by specific ELISA (R&D systems, UK) according to manufacturer's conditions.\nThis assay measures the production of IL-6 as an indication of immune system activation: the lower the value the better from the point of view of alleviating RA symptoms. All compounds of the invention show an effect compared to the DMSO vehicle that represents no treatment. […]"}
{"smiles": "CC(C)(CCNCc1c[nH]c2nc(N)[nH]c(=O)c12)c1ccccc1.Cl", "note": "[Example 1, N-((2-amino-4-oxo-4,7-dihydro-3H-pyrrolo[2,3-d]pyrimidin-5-yl)methyl)-3-methyl-3-phenylbutan-1-ammonium chloride]", "Level of IL6 expression compared to vehicle": "Reduction to 37%"}
{"smiles": "Cl.Nc1nc2[nH]cc(CNCCNc3ccccc3)c2c(=O)[nH]1", "note": "[Example 5, N-((2-amino-4-oxo-4,7-dihydro-3H-pyrrolo[2,3-d]pyrimidin-5-yl)methyl)-2-(phenylamino)ethan-1-aminium chloride]", "Level of IL6 expression compared to vehicle": "Reduction to 48%"}
{"smiles": "Cl.Nc1nc2[nH]cc(CNCCC(=O)c3ccccc3)c2c(=O)[nH]1", "note": "[Example 7, N-((2-amino-4-oxo-4,7-dihydro-3H-pyrrolo[2,3-d]pyrimidin-5-yl)methyl)-3-oxo-3-phenylpropan-1-ammonium chloride]", "Level of IL6 expression compared to vehicle": "Reduction to 32%"}
{"smiles": "Cl.Nc1nc2[nH]cc(CNCCC(c3ccccc3)c3ccccc3)c2c(=O)[nH]1", "note": "[Example 10, N-((2-amino-4-oxo-4,7-dihydro-3H-pyrrolo[2,3-d]pyrimidin-5-yl)methyl)-3,3-diphenylpropan-1-ammonium chloride]", "Level of IL6 expression compared to vehicle": "Reduction to 56%"}
{"smiles": "Cl.Nc1nc2[nH]cc(CNCC[C@@H](O)c3ccccc3)c2c(=O)[nH]1", "note": "[Example 12, (R)-N-((2-amino-4-oxo-4,7-dihydro-3H-pyrrolo[2,3-d]pyrimidin-5-yl)methyl)-3-hydroxy-3-phenylpropan-1-aminium chloride]", "Level of IL6 expression compared to vehicle": "Reduction to 55%"}
{"smiles": "Cl.Nc1nc2[nH]cc(CNCC[C@H](O)c3ccccc3)c2c(=O)[nH]1", "note": "[Example 13, (S)-N-((2-amino-4-oxo-4,7-dihydro-3H-pyrrolo[2,3-d]pyrimidin-5-yl)methyl)-3-hydroxy-3-phenylpropan-1-aminium chloride]", "Level of IL6 expression compared to vehicle": "Reduction to 67%"}
{"smiles": "C[C@@H]1CCN(C(=O)CC#N)C[C@@H]1N(C)c1ncnc2[nH]ccc12", "note": "[Positive control (Tofacitinib), Tofacitinib, reference compound]", "Level of IL6 expression compared to vehicle": "Reduction to 57%"}
